Read-outs that look alike come from different tables or passages of the source.
Experiment: Food effect on relative bioavailability of 480 mg FDV, two-period crossover (Part 2)
Format: in vivo, human
Conditions: for Tmax: median (range); for Tmax / AUC(0-t) / Vd/F / half-life: N = 7; for AUC(0-t) / Vd/F / half-life: mean (CV%); for Vd/F: read-out: Vz/F; for half-life: read-out: t½ (converted)
Protocol: Blood samples were taken pre-dose (0) and at prespecified time points after dosing (Figure 1). At each time point, approximately 4.9 mL of blood was drawn into evacuated collection tubes, containing ethylene diamine tetraacetate (EDTA) anticoagulant and labeled with sample identification information. The EDTA-anticoagulated blood samples were immediately placed on ice and centrifuged at 4 °C and approximately 2000–4,000 g for approximately 10 min in a refrigerated centrifuge as soon as possible after collection. The harvested plasma was split into two aliquots, immediately placed in appropriately labeled tubes, and stored at −20 °C or below until shipment.
Standard formulas for non-compartmental pharmacokinetic analysis provided by WinNonlin were used in determination of the maximum concentration (Cmax), time to maximum concentration (tmax), oral clearance (CL/F), mean residence time (MRTpo), and apparent volume distribution in terminal phase (Vz/F). The area under the plasma concentration–time curve (AUC) was calculated using a linear up/log down trapezoidal algorithm. The predicted concentration at the last time-point with quantifiable concentration was used for extrapolation of AUC. The fraction excreted as unchanged drug in urine (fe) was calculated as the percentage of the amount of drug excreted in urine as unchanged drug (Aet1–t2) compared to the administered dose ([Huang et al., 2008b]). […]

[1] = 480 mg FDV in solution, fed vs fasted
[2] = male, human, plasma, oral, 480 mg, FDV 480 mg/fasted
[3] = male, human, plasma, oral, 480 mg, FDV 480 mg/fed

SMILES: C=C[C@@H]1C[C@]1(NC(=O)[C@@H]1C[C@@H](Oc2cc(-c3csc(NC(=O)C(C)C)n3)nc3c(Br)c(OC)ccc23)CN1C(=O)[C@@H](NC(=O)OC1CCCC1)C(C)(C)C)C(=O)O [FDV, Faldaprevir]
- Increase of AUC0–∞ (systemic exposure) after high-fat breakfast [1]: 14%
- Increase of Cmax after high-fat and high-calorie breakfast [1]: 9%
- Effect of food on the rBA of FDV (480 mg FDV in solution, high-fat breakfast): no clinically relevant effect
- Tmax (FDV 480 mg/fasted): 4 (4–6) h
- Tmax (FDV 480 mg/fed): 6 (4–12) h
- AUC(0-t) [2]: 83400 ng·h/mL
- Vd/F [2]: 161 L
- half-life [2]: 19.6 h
- Tmax (male, human, plasma, oral, 480 mg, FDV 480 mg/fasted, read-out: tmax): 6 h
- AUC(0-t) [3]: 92000 ng·h/mL
- Vd/F [3]: 132 L
- half-life [3]: 18 h
- Tmax (male, human, plasma, oral, 480 mg, FDV 480 mg/fed, read-out: tmax): 4 h
